Laboratory results reported in US5134137A, “Cephalosporin antibiotics” (The Upjohn Company, priority 1990, dated 1992).
≈ marks a conversion by molar mass, not a printed value. Like-named read-outs stand apart in the source and are kept apart here.

What was measured:
Format in all cases: cell-based
Pasteurella hemolytica = assay: MIC (minimum inhibitory concentration), agar dilution, Pasteurella hemolytica; details: Pasteurella, read-out: MIC
Method: (§1) Stock solution of each test antibiotic compound were prepared to have a concentration of 2 mg. of the test compound per milliliter in sterile water of 0.1M ammonium acetate solution. The amount of each compound used was adjusted for base compound activity as calculated from the purity data for the selected batch of compound.
(§2) The dilution procedure described by Washington and Sutter [Manual of Clinical Microbiology, 3rd, Edit. (Lennett, E. H. et al, Eds.), pp. 453-458 (1980), American Society for Microbiology, Washington, D.C.] was modified so that serial concentrations of 128 to 0.0625 microgram/ml. in sterile water was obtained. Then 1.5 ml. aliquots of these test antibiotic dilution mixtures are added to 13.5 molten (50° C.) Mueller-Hinton agar. Each resulting mixture is poured into 15×100 mm, sterile Petri plates and allowed to dry at room temperature overnight.
(§3) Test bacterial cultures are maintained at -70° C. on glass beads. [See R. J. Yancey, Jr. et al, Amer. Jr. of Vet. Research, 48, No. 7, pp. 1050-1053, (1987)]. At least one bacteria-laden bead per culture is dropped into one ml. of brain heart infusion (BHI) broth for overnight culture at 37° C. in 5% V/V carbon dioxide in air atmosphere.
(§4) On the data of assay, 2 to 8 drops of the bacterial broth cultures are transferred to fresh BHI broth (1 ml.) and the mixture is incubated for 4 to 6 hours at 37° C. in a 5% V/V carbon dioxide in air atmosphere. The resulting cultures are then diluted to match a 0.5 MacFarland standard and further diluted 1:20 V/V with sterile saline solution.
(§5) A 0.001 ml. drop of the resulting mixture, containing approximately 10^3 to 10^4 colony forming units (CFU) of each test bacteria organism, is dispensed onto the surface of the test antibiotic compound test plates with a Steer's type replicator. The resulting innoculated plates are incubated 16 to 18 hours at 37° C. with a carbon dioxide atmosphere.
(§6) Stock solutions of each test antibiotic compound were prepared to have a concentration of 2 mg. of the test compound per milliliter in sterile water of 0.1M ammonium acetate solution. The amount of each compound used was adjusted for base compound activity as calculated from the purity data for the selected batch of compound.
(§7) The dilution procedure described by Washington and Sutter [Manual of Clinical Microbiology, 3rd, Edit. (Lennett, E. H. et al, Eds.), pp. 453-458 (1980), American Society for Microbiology, Washington, D.C.] was modified so that serial concentrations of 128 to 0.0625 microgram/ml. in sterile water was obtained. Then 1.5 ml. aliquots of these test antibiotic dilution mixtures are added to 13.5 molten (50° C.) Mueller-Hinton agar. Each resulting mixture is poured into 15×100 mm. sterile Petri plates and allowed to dry at room temperature overnight.
(§8) The dilution procedure described by Washington and Sutter [Manual of Clinical Microbiology, 3rd, Edit. (Lennett, E. H. et al, Eds.), pp. 453-458 (1980), American Society for Microbiology. Washington, D.C.] was modified so that serial concentrations of 128 to 0.0625 microgram/ml. in sterile water was obtained. Then 1.5 ml. aliquots of these test antibiotic dilution mixtures are added to 13.5 molten (50° C.) Mueller-Hinton agar. Each resulting mixture is poured into 15×100 mm. sterile Petri plates and allowed to dry at room temperature overnight.
(§9) Test bacterial culture are maintained at -70° C. on glass beads. [See R. J. Yancey, Jr. et al, Amer. Jr. of Vet. Research, 48, No. 7, pp. 1050-1053, (1987)]. At least one bacteria-laden bead per culture is dropped into one ml. of brain heart infusion (BHI) broth for overnight culture at 37° C. in 5% V/V carbon dioxide in air atmosphere.
(§10) On the day of assay, 2 to 8 drops of the bacterial broth cultures are transferred to fresh BHI broth (1 ml.) and the mixture is incubated for 4 to 6 hours at 37° C. in a 5% V/V carbon dioxide in air atmosphere. […]

Pasteurella multocida = assay: MIC, agar dilution, Pasteurella multocida; details: Pasteurella multocida; strain UC9581; read-out: MIC
Method: as §1, §2, §3, §4, §5, §6, §7, §8, §9, §10

Escherichia coli = assay: MIC, agar dilution, Escherichia coli; details: Escherichia coli, read-out: MIC
Method: as §1, §2, §3, §4, §5, §6, §7, §8, §9, §10

Salmonella choleraesuis = assay: MIC, agar dilution, Salmonella choleraesuis; details: Salmonella enterica, read-out: MIC
Method: as §1, §2, §3, §4, §5, §6, §7, §8, §9, §10

Salmonella typhimurium = assay: MIC, agar dilution, Salmonella typhimurium; details: Salmonella enterica, read-out: MIC
Method: as §1, §2, §3, §4, §5, §6, §7, §8, §9, §10

[1] = test system: Bordetella bronchiseptica; assay: MIC, agar dilution, Bordetella bronchiseptica; details: Bordetella bronchiseptica; strain UC6313; read-out: MIC
Method: as §1, §2, §3, §4, §5, §6, §7, §8, §9, §10

Pseudomonas aeruginosa = assay: MIC, agar dilution, Pseudomonas aeruginosa; details: Pseudomonas aeruginosa, read-out: MIC
Method: as §1, §2, §3, §4, §5, §6, §7, §8, §9, §10

Staphylococcus aureus = assay: MIC, agar dilution, Staphylococcus aureus; details: Staphylococcus aureus, read-out: MIC
Method: as §1, §2, §3, §4, §5, §6, §7, §8, §9, §10

Streptococcus agalactiae = assay: MIC, agar dilution, Streptococcus agalactiae; details: Streptococcus agalactiae, read-out: MIC
Method: as §1, §2, §3, §4, §5, §6, §7, §8, §9, §10

Streptococcus bovis = assay: MIC, agar dilution, Streptococcus bovis; details: Streptococcus equinus; strain UC6281; read-out: MIC
Method: as §1, §2, §3, §4, §5, §6, §7, §8, §9, §10

[2] = test system: Streptococcus dysgalactiae; assay: MIC, agar dilution, Streptococcus dysgalactiae; details: Streptococcus dysgalactiae; strain UC251; read-out: MIC
Method: as §1, §2, §3, §4, §5, §6, §7, §8, §9, §10

Enterococcus faecium = assay: MIC, agar dilution, Enterococcus faecium; details: Enterococcus faecium; strain UC241; read-out: MIC
Method: as §6, §2, §3, §4, §5, §1, §7, §8, §9, §10

Enterococcus faecalis = assay: MIC, agar dilution, Enterococcus faecalis; details: Enterococcus faecalis; strain UC694; read-out: MIC
Method: as §6, §2, §3, §4, §5, §1, §7, §8, §9, §10

Streptococcus suis = assay: MIC, agar dilution, Streptococcus suis; details: Streptococcus suis; strain 650-2; read-out: MIC
Method: as §1, §2, §3, §4, §5, §6, §7, §8, §9, §10

Streptococcus uberis = assay: MIC, agar dilution, Streptococcus uberis; details: Streptococcus uberis, read-out: MIC
Method: as §1, §2, §3, §4, §5, §6, §7, §8, §9, §10

Corynebacterium pyogenes = assay: MIC, agar dilution, Corynebacterium pyogenes; details: strain 213-2; read-out: MIC
Method: as §1, §2, §3, §4, §5, §6, §7, §8, §9, §10

Micrococcus luteus = assay: MIC, agar dilution, Micrococcus luteus; details: Micrococcus luteus; strain UC130; read-out: MIC
Method: as §1, §2, §3, §4, §5, §6, §7, §8, §9, §10

[3] = CHOLERAESUIS / UC6073, strain UC6073
[4] = CHOLERAESUIS / UC6077, strain UC6077
[5] = TYPHIMURIUM / UC6162, strain UC6162
[6] = TYPHIMURIUM / UC6164, strain UC6164

| SMILES | MIC (Pasteurella hemolytica; strain UC6531) | MIC (Pasteurella hemolytica; strain UC6532) | MIC (Pasteurella hemolytica; strain UC9582) | MIC (Pasteurella multocida) | MIC (Escherichia coli; strain UC3784) | MIC (Escherichia coli; strain UC6720) | MIC (Escherichia coli; strain UC9670) | MIC (Salmonella choleraesuis; [3]) | MIC (Salmonella choleraesuis; [4]) | MIC (Salmonella typhimurium; [5]) | MIC (Salmonella typhimurium; [6]) | MIC [1] | MIC (Staphylococcus aureus; strain UC6093) | MIC (Staphylococcus aureus; strain UC6097) | MIC (Staphylococcus aureus; strain UC9203) | MIC (Streptococcus agalactiae; strain UC3947) | MIC (Streptococcus agalactiae; strain UC6892) | MIC (Streptococcus bovis) | MIC [2] | MIC (Enterococcus faecium) | also measured |
| --- | --- | --- | --- | --- | --- | --- | --- | --- | --- | --- | --- | --- | --- | --- | --- | --- | --- | --- | --- | --- | --- |
| CO/N=C(\C(=O)N[C@@H]1C(=O)N2C(C(=O)O)=C(CSSCC3=C(C(=O)O)N4C(=O)[C@@H](NC(=O)/C(=N\OC)c5csc(N)n5)[C@H]4SC3)CS[C@H]12)c1csc(N)n1 [Example 5, 1,1-bis-(7β)-(2-(2-amino-1,3-thiazol-4-yl)-(Z)-2-(methoxyimino)acetamido-4-carboxy-3-cephem-3-yl)dimethyldisulfide] | ≤ 0.06 µg/mL | ≤ 0.06 µg/mL | ≤ 0.06 µg/mL | ≤ 0.06 µg/mL | 2 µg/mL (≈ 2.33 µM) | 2 µg/mL (≈ 2.33 µM) | 2 µg/mL (≈ 2.33 µM) | 4 µg/mL (≈ 4.67 µM) | 8 µg/mL (≈ 9.33 µM) | 2 µg/mL (≈ 2.33 µM) | 2 µg/mL (≈ 2.33 µM) | > 32 µg/mL | 16 µg/mL (≈ 18.7 µM) | 16 µg/mL (≈ 18.7 µM) | 16 µg/mL (≈ 18.7 µM) | ≤ 0.06 µg/mL | ≤ 0.06 µg/mL | ≤ 0.06 µg/mL | ≤ 0.06 µg/mL | > 32 µg/mL | MIC (Pseudomonas aeruginosa; strain ATCC27853): > 32 µg/mL; MIC (Enterococcus faecalis): > 32 µg/mL; MIC (Streptococcus suis): ≤ 0.06 µg/mL; MIC (Streptococcus uberis; strain UC3946): 0.25 µg/mL (≈ 0.292 µM); MIC (Streptococcus uberis; strain UC6159): 16 µg/mL (≈ 18.7 µM); MIC (Corynebacterium pyogenes): 0.25 µg/mL (≈ 0.292 µM); MIC (Micrococcus luteus): ≤ 0.06 µg/mL |
| CO/N=C(\C(=O)N[C@@H]1C(=O)N2C(C(=O)O)=C(CSSC)CS[C@H]12)c1csc(N)n1 [Example 9, 7-[2-(2-amino-1,3-thiazo-4-yl]-2-(methoxyimino)acetamimdo]-3-methyldithiomethyl-3-cephem-4-carboxylic acid] | ≤ 0.06 µg/mL | ≤ 0.06 µg/mL | ≤ 0.06 µg/mL | ≤ 0.06 µg/mL | 1 µg/mL (≈ 2.1 µM) | 1 µg/mL (≈ 2.1 µM) | 1 µg/mL (≈ 2.1 µM) | 1 µg/mL (≈ 2.1 µM) | 4 µg/mL (≈ 8.41 µM) | 1 µg/mL (≈ 2.1 µM) | 1 µg/mL (≈ 2.1 µM) | > 32 µg/mL | 2 µg/mL (≈ 4.21 µM) | 2 µg/mL (≈ 4.21 µM) | 2 µg/mL (≈ 4.21 µM) | ≤ 0.06 µg/mL | ≤ 0.06 µg/mL | ≤ 0.06 µg/mL | ≤ 0.06 µg/mL | > 32 µg/mL | MIC (Pseudomonas aeruginosa; ATCC27853, strain ATCC 27853): > 32 µg/mL; MIC (Enterococcus faecalis): > 32 µg/mL; MIC (Streptococcus suis): ≤ 0.06 µg/mL; MIC (Streptococcus uberis; strain UC3946): 0.13 µg/mL (≈ 0.273 µM); MIC (Streptococcus uberis; strain UC6159): 16 µg/mL (≈ 33.6 µM); MIC (Corynebacterium pyogenes): 0.5 µg/mL (≈ 1.05 µM); MIC (Micrococcus luteus): 0.13 µg/mL (≈ 0.273 µM) |
